Converted amounts (≈) assume the structure as drawn.
Assays:
[1] = test system: AChE; conditions: ref Sandahl et al. [76], cited from earlier work
[2] = AA release kinetics, two-compartment system, and mathematical modeling; format: physicochemical
Experimental: The profiles of AA release from the nanoparticles were evaluated using a two-compartment system composed of a donor compartment (2 mL) and an acceptor compartment (50 mL), separated by a cellulose membrane (1000 Da exclusion pore size) under slight stirring and room temperature (25 °C). Aliquots (1 mL) were periodically collected from the acceptor compartment, with the volume being replaced with 1 mL of water to maintain a constant volume. The aliquots removed were analyzed by HPLC and the results were converted to percentages of released AA. The assays were performed in triplicate. Zero order, first order, Higuchi and Korsmeyer-Peppas mathematical models were used to elucidate the release mechanism of AA from all formulations.

[3] = AA oxidation kinetics induced by peroxymonosulfate (Oxone); format: physicochemical
Experimental: (§1) The oxidation profiles of AA, alone and encapsulated in the CS and PCL nanoparticles, were evaluated using the method described previously. A stock solution of AA was prepared by dissolving 50 mg of AA in 250 mL of stabilizing solution (EDTA). The absorbance of this solution was measured at 265 nm, with the stabilizing solution used as the background. Separately, a solution of Oxone (potassium peroxymonosulfate, Sigma-Aldrich) was prepared in 50 mL of EDTA solution. An aliquot of AA solution was mixed with 3 mL of Oxone solution and completed to 25 mL with the stabilizing solution, resulting in a solution with 10 μg mL^−1 of AA. The same procedure was performed for the CS and PCL nanoparticles loaded with AA. The absorbance value of the solution containing only AA, minus the absorbance value of the solution containing AA and Oxone, was proportional to the concentration of AA present in the sample. For oxidation studies under aquarium conditions, 9 aquaria were used (3 per treatment), each containing a final volume of 3 L and fitted with an aeration pump. The parameters set for the experiment were 28 °C, pH 7 ± 0.5, and 25 µg mL^−1 of AA (the concentration used in the in vivo assays). At predetermined times, 1 mL aliquots were collected, and the amount of AA was determined using HPLC. The results were presented as % viable ascorbic acid. The assays were performed in triplicate (n = 3).

[4] = AA oxidation under aquarium conditions; format: physicochemical
Experimental: as §1

[5] = Toxicity evaluation using zebrafish (mortality, LC values, hatching, morphology; 3.12-400 mg/L, 96 h); conditions: zebrafish (Danio rerio), in vivo
Experimental: (§2) Preliminary tests were performed to determine the lethal concentration (LC50, mg/L). For this experiment, 24-well polystyrene plates were used, with the embryos being individually exposed to 2 mL of the test solution (n = 24 per group). […] The positive control was 4 mg L^−1 of 3,5-dichloroaniline (≥ 98%, Sigma-Aldrich). The plates were examined every 24 h to determine the mortality of the embryos and larvae, using a stereomicroscope (Model SMZ 2 LED, Optika) and Optika View v. 7.1.1.5 software. […] 1.17.04 software.

[6] = test system: zebrafish embryos and larvae; assay: as above
Experimental: as §2

[7] = test system: zebrafish larvae; assay: Zebrafish motor activity (distance traveled, speed); format: in vivo, Danio rerio
Experimental: After 96 h, the larvae were distributed individually in 96-well plates, with each well containing 100 µL of embryo medium and 100 µL of test solution (total volume = 200 µL). The behaviors of the larvae were recorded individually for 10 min (at 28 °C) and were analyzed using EthovisionXT software (Noldus). The parameters considered were speed (mm/s) and distance covered.

[8] = test system: zebrafish embryos and larvae; conditions: after 96 h of exposure
Experimental: The embryos were kept individually in 24-well polystyrene plates (n = 24 organisms per group), with addition of 2 mL of test solution to each well. The temperature was maintained at 26 ± 0.2 °C and a light/dark photoperiod of 14/10 h was provided. Determinations were made of mortality and morphological abnormalities including changes in heartbeat, presence of coagulation, undetected tail, change in head formation, disintegration of larvae, pericardial edema, yolk sac edema and opacity, and defective development of the somite.
The total length of the larvae (mm) was measured from the mouth to the terminal portion of the tail.
Mortality was defined as the presence of coagulation, lack of heartbeat, failure of somite development, and undeveloped tail. The hatching rate was calculated considering the successful hatching of embryos in relation to the total number of embryos in each replicate. The observed malformations included pericardial edema, tail deformity, yolk sac edema, and spinal curvature.
The malformation rate was determined considering the percentage of malformed larvae in relation to the total number of larvae that hatched during the test. […] The equipment was previously calibrated using a millimeter scale.

## CCOP(=S)(OCC)Oc1nc(Cl)c(Cl)cc1Cl [chlorpyrifos]
[1]; at 0.6 µg L^−1
  relative AChE activity compared to the control: 77.2%
[1]
  exposure concentration with significant decreases in swimming activity: 0.6 µg/L

## O=C1O[C@H]([C@@H](O)CO)C(O)=C1O [AA, L-ascorbic acid]
[2]; after 60 min, 25 °C, water
  AA released (acceptor compartment): 39 ± 0.2%
[2]; after 210 min
  AA released (acceptor compartment): 51 ± 0.9%
[3]; first minute, initial 10 μg mL^−1 AA, peroxymonosulfate
  AA concentration after addition of the oxidizing agent: 2.5 ± 0.01 µg/mL
[3]; peroxymonosulfate oxidizing agent
  time to total degradation of AA: 7 min
[4]
  time to total degradation of AA: 120 min
[4]; first 60 min
  AA degraded: almost half
[5]
  LC50 at 96 h: 331 µg/mL (≈ 1880 µM)
[6]; 400 mg/L, 96 h
  mortality: 75%
[6]; 25 and 50 mg L^−1
  malformations compared to NPs_CS_AA at the same concentrations: higher numbers of malformations
[6]; 100 and 200 mg L^−1, after 96 h
  hatching rate compared to the control group: more pronounced decreases in hatching
[6]; 96 h, probit analysis
  LC10: 53.0 µg/mL (≈ 301 µM)
  LC20: 148.3 µg/mL (≈ 842 µM)
  LC30: 217.1 µg/mL (≈ 1230 µM)
  LC40: 275.8 µg/mL (≈ 1570 µM)
[6]; after 48 h of exposure
  hatching rate compared to the control group: lower
[6]; all concentrations tested except 400 mg L^−1, 96 h
  mortality: below 30%
[7]; LC10-LC50, 96 h exposure
  distance traveled, dose dependence: dose-dependent increase in the distance traveled
  swimming speed, dose dependence: dose-dependent increases in speed
[7]; LC50, 96 h exposure
  distance traveled compared to the control group: significant (p < 0.05) increase in the distance traveled
[7]; up to the LC30 concentration
  distance traveled compared to the control group: shorter
[8]; LC50 concentration
  hatching rate: 16.6%
[8]; LC50 dose
  malformations of embryos and larvae: edema and opacity of the yolk sac, edema of the pericardium, malformation of the tail, and bent spine

Reference: article PMC8166143, “Ecotoxicity evaluation of polymeric nanoparticles loaded with ascorbic acid for fish nutrition in aquaculture” (Journal of Nanobiotechnology, 2021)
